Laboratory results reported in US11213593B2, “Sequence-specific cellular uptake of spherical nucleic acid nanoparticle conjugates” (priority 2014, dated 2022).

How the values were obtained:
C166 cells [1] = test: Confocal microscopy of QD-SNAs in C166 cells; format: cell-based, mouse; conditions: C166 cells co-treated with equal concentrations of a QD-SNA and an AuNP-SNA of the other shell
Method: Five nanometer AuNP-SNAs and QD-SNAs comprised of oligonucleotides listed in Table 2 were prepared to study the effect of the poly G shell on the cellular uptake of SNAs of different core compositions (FIG. 6). All sequences are 28 bases long and terminated with a dibenzocyclooctyl (DBCO) group. The AuNP-SNAs and QD-SNAs were synthesized using a previously described strategy [Zhang et al., Nat Mater 12: 741-746 (2013), incorporated herein by reference in its entirety]. In one set of experiments, C166 cells were treated with equal concentrations of T-rich QD-SNAs and poly G AuNP-SNAs. In another set of experiments, cells were treated with equal concentrations of T-rich AuNP-SNAs and poly G QD-SNAs. Confocal microscopy was then used to track the fluorescent signal of the QDs that entered cells. […] To further confirm, ICP-MS was used to analyze the Au content and Cd content in C166 cells treated with T-rich AuNP-SNAs or QD-SNAs alone, poly G AuNP-SNAs or QD-SNAs alone, a combination of T-rich AuNP-SNAs and poly G QD-SNAs, and a combination of T-rich QD-SNAs and poly G AuNP-SNAs. C166 cells treated with poly G AuNP-SNAs have 3 times higher Au content than cells treated with T-rich AuNP-SNAs. […] Cells treated with poly G AuNP-SNAs and T-rich QD-SNAs have higher Au content compared to Cd content, and this trend is reversed for cells treated with T-rich AuNP-SNAs and poly G QD-SNAs (FIG. 6b).

C166 cells [2] = test: ICP-MS of Au and Cd content in C166 cells (competitive cellular uptake assay); format: cell-based, mouse
Method: Five nanometer AuNP-SNAs and QD-SNAs comprised of oligonucleotides listed in Table 2 were prepared to study the effect of the poly G shell on the cellular uptake of SNAs of different core compositions (FIG. 6). All sequences are 28 bases long and terminated with a dibenzocyclooctyl (DBCO) group. The AuNP-SNAs and QD-SNAs were synthesized using a previously described strategy [Zhang et al., Nat Mater 12: 741-746 (2013), incorporated herein by reference in its entirety]. In one set of experiments, C166 cells were treated with equal concentrations of T-rich QD-SNAs and poly G AuNP-SNAs. In another set of experiments, cells were treated with equal concentrations of T-rich AuNP-SNAs and poly G QD-SNAs. Confocal microscopy was then used to track the fluorescent signal of the QDs that entered cells. […] To further confirm, ICP-MS was used to analyze the Au content and Cd content in C166 cells treated with T-rich AuNP-SNAs or QD-SNAs alone, poly G AuNP-SNAs or QD-SNAs alone, a combination of T-rich AuNP-SNAs and poly G QD-SNAs, and a combination of T-rich QD-SNAs and poly G AuNP-SNAs. […]
ICP-MS. After adding 5 μL of 5 ppm indium (internal standard) and 5 mL of matrix solution (2% HCl and 2% HNO3), the Au-197 content of the resultant solution was measured by an X Series II ICP-MS (ThermoFisher) after subtracting the background gold content of untreated cells. […]

Substance | intracellular fluorescence of QDs (C166 cells [1]) | Cd content of cells versus cells treated with T-rich QD-SNAs (C166 cells [2]; C166 cells) | competitive cellular uptake (Au versus Cd content) (C166 cells [2]; C166 cells treated with a combination of AuNP-SNAs and QD-SNAs)
T-rich QD-SNAs: CdSe quantum dot, polymer-coated, with DBCO-terminated 28-base T-rich DNA, SEQ ID NO: 8 (DNA TATCGTATTTACTCTGATTTTTTTTTTT; DBCO-terminated DNA clicked to polymer-coated CdSe quantum dot, further chemistry not given here) | very little intracellular fluorescence | – | –
poly G QD-SNAs: CdSe quantum dot, polymer-coated, with DBCO-terminated 28-base DNA (GGT)5T13, SEQ ID NO: 7 (DNA GGTGGTGGTGGTGGTTTTTTTTTTTTTT; DBCO-terminated DNA clicked to polymer-coated CdSe quantum dot, further chemistry not given here) | significantly higher intracellular fluorescence | three-fold higher Cd content | preferentially enter cells
